Experimental data reported in US20210045385A1, “PYRIDAZINONE-SUBSTITUTED KETOXIMES AS HERBICIDES” (FMC Corporation, priority 2018, published 2021).

Key:
Assay type in all cases: in vivo
[1] = system: pigweed (Amaranthus retroflexus); experiment: Test A preemergence, visual plant response rating; details: for Pigweed plant response rating: 125 g ai/ha, preemergence, 0 to 100 scale, 0 no effect, 100 complete control; for Pigweed plant response rating (0 to 100 scale): 500 g ai/ha Preemergence, approx. 10 days
Summary of the method: (§1)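 Formulated in a non-phytotoxic solvent mixture including surfactant, each test chemical was sprayed onto the soil surface after sowing, or onto seedlings 2 to 10 cm high. Roughly 10 days later, plants were compared with untreated controls and rated for injury from 0 (no effect) to 100 (complete control).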

[2] = system: foxtail, giant (giant foxtail, Setaria faberii); experiment: Test A preemergence, visual plant response rating; details: for Foxtail, Giant plant response rating: 125 g ai/ha, preemergence, 0 to 100 scale, 0 no effect, 100 complete control; for Foxtail, Giant plant response rating (0 to 100 scale): 500 g ai/ha Preemergence, approx. 10 days
Summary of the method: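 Preemergence: seeds in loam/sand blend given directed soil spray of compound in non-phytotoxic solvent with surfactant. Postemergence: plants 2–10 cm, one- to two-leaf stage, sprayed with same formulation. Visual injury rated vs untreated controls after ~10 days in greenhouse, 0 (no effect) to 100 (complete control).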

kochia (Kochia scoparia) [3] = experiment: Test A preemergence, visual plant response rating; details: for Kochia plant response rating: 125 g ai/ha, preemergence, 0 to 100 scale, 0 no effect, 100 complete control; for Kochia plant response rating (0 to 100 scale): 500 g ai/ha Preemergence, approx. 10 days
Summary of the method: as §1

[4] = system: Italian ryegrass (Lolium multiflorum); experiment: Test A preemergence, visual plant response rating; details: for Ryegrass, Italian plant response rating: 125 g ai/ha, preemergence, 0 to 100 scale, 0 no effect, 100 complete control; for Ryegrass, Italian plant response rating (0 to 100 scale): 500 g ai/ha Preemergence, approx. 10 days
Summary of the method: as §1

[5] = system: barnyardgrass (Echinochloa crus-galli); experiment: Test A preemergence, visual plant response rating; details: for Barnyardgrass plant response rating: 125 g ai/ha, preemergence, 0 to 100 scale, 0 no effect, 100 complete control; for Barnyardgrass plant response rating (0 to 100 scale): 500 g ai/ha Preemergence, approx. 10 days
Summary of the method: as §1

[6] = system: ragweed (common ragweed, Ambrosia elatior); experiment: Test A preemergence, visual plant response rating; details: for Ragweed plant response rating: 125 g ai/ha, preemergence, 0 to 100 scale, 0 no effect, 100 complete control; for Ragweed plant response rating (0 to 100 scale): 500 g ai/ha Preemergence, approx. 10 days
Summary of the method: as §1

corn (Zea mays) = experiment: Test A postemergence, visual plant response rating; details: for Corn plant response rating (0 to 100 scale): 500 g ai/ha, postemergence, 0 is no effect, 100 is complete control; for Corn plant response rating: Postemergence, 125 g ai/ha, 0 to 100 scale (0 no effect, 100 complete control)
Summary of the method: as §1

[7] = system: pigweed (Amaranthus retroflexus); experiment: Test A postemergence, visual plant response rating; details: for Pigweed plant response rating (0 to 100 scale): 500 g ai/ha, postemergence, 0 is no effect, 100 is complete control; for Pigweed plant response rating: Postemergence, 125 g ai/ha, 0 to 100 scale (0 no effect, 100 complete control)
Summary of the method: as §1

[8] = system: foxtail, giant (giant foxtail, Setaria faberii); experiment: Test A postemergence, visual plant response rating; details: for Foxtail, Giant plant response rating (0 to 100 scale): 500 g ai/ha, postemergence, 0 is no effect, 100 is complete control; for Foxtail, Giant plant response rating: Postemergence, 125 g ai/ha, 0 to 100 scale (0 no effect, 100 complete control)
Summary of the method: as §1

kochia (Kochia scoparia) [9] = experiment: Test A postemergence, visual plant response rating; details: for Kochia plant response rating (0 to 100 scale): 500 g ai/ha, postemergence, 0 is no effect, 100 is complete control; for Kochia plant response rating: Postemergence, 125 g ai/ha, 0 to 100 scale (0 no effect, 100 complete control)
Summary of the method: as §1

[10] = system: Italian ryegrass (Lolium multiflorum); experiment: Test A postemergence, visual plant response rating; details: for Ryegrass, Italian plant response rating: 125 g ai/ha, 0 to 100 scale (0 no effect, 100 complete control)
Summary of the method: as §1

[11] = system: wheat (Triticum aestivum); experiment: Test A postemergence, visual plant response rating; details: for Wheat plant response rating: 0 to 100 scale (0 no effect, 100 complete control)
Summary of the method: as §1

[12] = system: barnyardgrass (Echinochloa crus-galli); experiment: Test A postemergence, visual plant response rating; details: for Barnyardgrass plant response rating (0 to 100 scale): 500 g ai/ha, postemergence, 0 is no effect, 100 is complete control; for Barnyardgrass plant response rating: Postemergence, 125 g ai/ha, 0 to 100 scale (0 no effect, 100 complete control)
Summary of the method: as §1

[13] = system: blackgrass (Alopecurus myosuroides); experiment: Test A postemergence, visual plant response rating; details: for Blackgrass plant response rating (0 to 100 scale): 500 g ai/ha, postemergence, 0 is no effect, 100 is complete control; for Blackgrass plant response rating: Postemergence, 125 g ai/ha, 0 to 100 scale (0 no effect, 100 complete control)
Summary of the method: as §1

[14] = system: galium (catchweed bedstraw, Galium aparine); experiment: Test A postemergence, visual plant response rating; details: for Galium plant response rating (0 to 100 scale): 500 g ai/ha, postemergence, 0 is no effect, 100 is complete control; for Galium plant response rating: Postemergence, 125 g ai/ha, 0 to 100 scale (0 no effect, 100 complete control)
Summary of the method: as §1

[15] = system: ragweed (common ragweed, Ambrosia elatior); experiment: Test A postemergence, visual plant response rating; details: for Ragweed plant response rating (0 to 100 scale): 500 g ai/ha, postemergence, 0 is no effect, 100 is complete control; for Ragweed plant response rating: Postemergence, 125 g ai/ha, 0 to 100 scale (0 no effect, 100 complete control)
Summary of the method: as §1

rice (Oryza sativa) = experiment: Test B flooded paddy test, visual plant response rating; details: 250 g ai/ha, Flood, applied to paddy water, 2-leaf stage, evaluated after 13 to 15 days
Summary of the method: (§2)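 Plants were raised to the 2-leaf stage, then pots were flooded to 3 cm above the soil and test compound was applied directly into the paddy water. Water depth was held for the whole test; after 13 to 15 days in a greenhouse, responses were scored visually against controls.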

[16] = system: ducksalad (Heteranhera limosa); experiment: as above; details: 250 g ai/ha, Flood, applied to paddy water, 2-leaf stage, evaluated after 13 to 15 days
Summary of the method: as §2

[17] = system: sedge, umbrella (small-flower umbrella sedge, Cyperus difformis); experiment: as above; details: 250 g ai/ha, Flood, applied to paddy water, 2-leaf stage, evaluated after 13 to 15 days
Summary of the method: as §2

[18] = system: barnyardgrass (Echinochloa crus-galli); experiment: as above; details: 250 g ai/ha, Flood, applied to paddy water, 2-leaf stage, evaluated after 13 to 15 days
Summary of the method: as §2

[19] = 500 g ai/ha, postemergence, 0 is no effect, 100 is complete control

| SMILES | Pigweed plant response rating [1] | Pigweed plant response rating (0 to 100 scale) [1] | Foxtail, Giant plant response rating [2] | Foxtail, Giant plant response rating (0 to 100 scale) [2] | Kochia plant response rating (kochia (Kochia scoparia) [3]) | Kochia plant response rating (0 to 100 scale) (kochia (Kochia scoparia) [3]) | Ryegrass, Italian plant response rating [4] | Ryegrass, Italian plant response rating (0 to 100 scale) [4] | Barnyardgrass plant response rating [5] | Barnyardgrass plant response rating (0 to 100 scale) [5] | Ragweed plant response rating [6] | Ragweed plant response rating (0 to 100 scale) [6] | Corn plant response rating (0 to 100 scale) (corn (Zea mays)) | Corn plant response rating (corn (Zea mays)) | Pigweed plant response rating (0 to 100 scale) [7] | Pigweed plant response rating [7] | Foxtail, Giant plant response rating (0 to 100 scale) [8] | Foxtail, Giant plant response rating [8] | Kochia plant response rating (0 to 100 scale) (kochia (Kochia scoparia) [9]) | Kochia plant response rating (kochia (Kochia scoparia) [9]) | other results |
| --- | --- | --- | --- | --- | --- | --- | --- | --- | --- | --- | --- | --- | --- | --- | --- | --- | --- | --- | --- | --- | --- |
| CON=C(c1cccc(F)c1)c1c(O)c(C)nn(C)c1=O [Compound 64] | 0 | 10 | 0 | 0 | 0 | 0 | 30 | 60 | 0 | 0 | 10 | 20 | 0 | 0 | 40 | 20 | 10 | 0 | 60 | 20 | Ryegrass, Italian plant response rating (0 to 100 scale) [10, 19]: 70; Ryegrass, Italian plant response rating ([10]; Postemergence): 50; Wheat plant response rating (0 to 100 scale) [11, 19]: 0; Wheat plant response rating ([11]; Postemergence, 125 g ai/ha): 0; Barnyardgrass plant response rating (0 to 100 scale) [12]: 20; Barnyardgrass plant response rating [12]: 20; Blackgrass plant response rating (0 to 100 scale) [13]: 20; Blackgrass plant response rating [13]: 0; Galium plant response rating (0 to 100 scale) [14]: 80; Galium plant response rating [14]: 70; Ragweed plant response rating (0 to 100 scale) [15]: 50; Ragweed plant response rating [15]: 20; Plant response rating, Rice (0 to 100 scale, 0 is no effect, 100 is complete control) (rice (Oryza sativa)): 0; Plant response rating, Ducksalad (0 to 100 scale, 0 is no effect, 100 is complete control) [16]: 0; Plant response rating, Sedge, Umbrella (0 to 100 scale, 0 is no effect, 100 is complete control) [17]: 0; Plant response rating, Barnyardgrass (0 to 100 scale, 0 is no effect, 100 is complete control) [18]: 0 |
| CO/N=C(\c1cccc(C)c1F)c1c(O)c(C)nn(C)c1=O [Compound 50] | 30 | 90 | 0 | 40 | 10 | 70 | 30 | 30 | 10 | 60 | 50 | 90 | 0 | 0 | 90 | 90 | 70 | 20 | 80 | 60 | Ryegrass, Italian plant response rating (0 to 100 scale) [10, 19]: 80; Ryegrass, Italian plant response rating ([10]; Postemergence): 20; Wheat plant response rating (0 to 100 scale) [11, 19]: 0; Wheat plant response rating ([11]; Postemergence, 125 g ai/ha): 0; Barnyardgrass plant response rating (0 to 100 scale) [12]: 40; Barnyardgrass plant response rating [12]: 10; Blackgrass plant response rating (0 to 100 scale) [13]: 30; Blackgrass plant response rating [13]: 0; Galium plant response rating (0 to 100 scale) [14]: 70; Galium plant response rating [14]: 70; Ragweed plant response rating (0 to 100 scale) [15]: 80; Ragweed plant response rating [15]: 70; Plant response rating, Rice (0 to 100 scale, 0 is no effect, 100 is complete control) (rice (Oryza sativa)): 0; Plant response rating, Ducksalad (0 to 100 scale, 0 is no effect, 100 is complete control) [16]: 0; Plant response rating, Sedge, Umbrella (0 to 100 scale, 0 is no effect, 100 is complete control) [17]: 0; Plant response rating, Barnyardgrass (0 to 100 scale, 0 is no effect, 100 is complete control) [18]: 0 |
| CCCO/N=C(\c1c(O)c(C)nn(C)c1=O)c1cccc2ccccc12 [Compound 80] | 20 | 100 | 60 | 100 | 0 | 10 | 10 | 30 | 60 | 80 | 50 | 100 | 20 | 10 | 80 | 70 | 80 | 60 | 60 | 30 | Ryegrass, Italian plant response rating (0 to 100 scale) [10, 19]: 70; Ryegrass, Italian plant response rating ([10]; Postemergence): 20; Wheat plant response rating (0 to 100 scale) [11, 19]: 0; Wheat plant response rating ([11]; Postemergence, 125 g ai/ha): 0; Barnyardgrass plant response rating (0 to 100 scale) [12]: 60; Barnyardgrass plant response rating [12]: 50; Blackgrass plant response rating (0 to 100 scale) [13]: 90; Blackgrass plant response rating [13]: 70; Galium plant response rating (0 to 100 scale) [14]: 90; Galium plant response rating [14]: 80; Ragweed plant response rating (0 to 100 scale) [15]: 90; Ragweed plant response rating [15]: 80; Plant response rating, Rice (0 to 100 scale, 0 is no effect, 100 is complete control) (rice (Oryza sativa)): 0; Plant response rating, Ducksalad (0 to 100 scale, 0 is no effect, 100 is complete control) [16]: 0; Plant response rating, Sedge, Umbrella (0 to 100 scale, 0 is no effect, 100 is complete control) [17]: 0; Plant response rating, Barnyardgrass (0 to 100 scale, 0 is no effect, 100 is complete control) [18]: 0 |
| CON=C(c1ccc(C)s1)c1c(O)c(C)nn(C)c1=O (mixture of isomers) [Compound 144] | 0 | 0 | 0 | 0 | 0 | 0 | 0 | 0 | 0 | 0 | 0 | 0 | 0 | 0 | 10 | 0 | 0 | 0 | 0 | 0 | Ryegrass, Italian plant response rating (0 to 100 scale) [10, 19]: 0; Ryegrass, Italian plant response rating (0 to 100 scale) ([10]; Postemergence, rate not given, approx. 10 days): 0; Wheat plant response rating ([11]; Postemergence, 500 g ai/ha): 0; Wheat plant response rating (0 to 100 scale) ([11]; Postemergence, approx. 10 days): 0; Barnyardgrass plant response rating (0 to 100 scale) [12]: 0; Barnyardgrass plant response rating [12]: 0; Blackgrass plant response rating (0 to 100 scale) [13]: 0; Blackgrass plant response rating [13]: 0; Galium plant response rating (0 to 100 scale) [14]: 30; Galium plant response rating [14]: 0; Ragweed plant response rating (0 to 100 scale) [15]: 30; Ragweed plant response rating [15]: 0; Plant response rating, Rice (0 to 100 scale, 0 is no effect, 100 is complete control) (rice (Oryza sativa)): 0; Plant response rating, Ducksalad (0 to 100 scale, 0 is no effect, 100 is complete control) [16]: 0; Plant response rating, Sedge, Umbrella (0 to 100 scale, 0 is no effect, 100 is complete control) [17]: 0; Plant response rating, Barnyardgrass (0 to 100 scale, 0 is no effect, 100 is complete control) [18]: 0 |
